Measurements from ChEMBL document CHEMBL1201862, “PubChem BioAssay data set” (2004).
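Briefly, cells in 96-well plates were exposed to five compound concentrations for 48 h, and endpoints were estimated by linear interpolation. GI50 marks 50% less growth.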 Calls of active or inactive are those of the source. Cut-off read from the data, not from the text of the source: active = GI50 up to about 1.1 µM and inactive = higher.

Legend:
Assay in all cases: inhibition of tumour cell growth, NCI panel, 48 h
[1] = test system: UACC-257
[2] = test system: SNB-78
[3] = test system: OVCAR-8
[4] = test system: Malme-3M
[5] = test system: KM12
[6] = test system: NCI-H226
[7] = test system: TK-10
[8] = test system: LXFL 529
[9] = test system: UO-31
[10] = test system: SK-MEL-2
[11] = test system: CCRF-CEM
[12] = test system: MOLT-4
[13] = test system: RPMI-8226
[14] = test system: SW-620
[15] = test system: HL-60
[16] = test system: SNB-19
[17] = test system: SF-539
[18] = test system: SN12C
[19] = test system: LOX IMVI
[20] = test system: SK-MEL-28
[21] = test system: SF-295
[22] = test system: ACHN
[23] = test system: NCI-H522
[24] = test system: DLD-1
[25] = test system: OVCAR-4
[26] = test system: DMS-114
[27] = test system: HCT-15
[28] = test system: K562
[29] = test system: HCC 2998
[30] = test system: SNB-75
[31] = test system: HOP-62
[32] = test system: DMS-273
[33] = test system: OVCAR-3
[34] = test system: A549
[35] = test system: OVCAR-5
[36] = test system: M14
[37] = test system: XF498
[38] = test system: 786-0
[39] = test system: SK-MEL-5
[40] = test system: RXF 393
[41] = test system: IGROV-1
[42] = test system: COLO 205
[43] = test system: M19-MEL
[44] = test system: SR
[45] = test system: U-251
[46] = test system: EKVX
[47] = test system: SK-OV-3
[48] = test system: SF-268
[49] = test system: UACC-62
[50] = test system: NCI-H23
[51] = test system: HOP-92
[52] = test system: HCT-116
[53] = test system: CAKI-1
[54] = test system: KM-20L2
[55] = test system: HT-29
[56] = test system: NCI-H460

With `CCC1CCc2c(OC)ccc(OCC(=O)O)c2C1=O` (centres undefined) the GI50 [1] was > 100 µM (inactive), the GI50 [2] was > 100 µM (inactive) and the GI50 [3] was > 100 µM (inactive). For the same compound, the GI50 [4] was > 100 µM (inactive), the GI50 [5] was > 100 µM (inactive) and the GI50 [6] was > 100 µM (inactive). The GI50 [7] was > 100 µM (inactive), the GI50 [8] was > 100 µM (inactive) and the GI50 [9] was > 100 µM (inactive). For the same compound, the GI50 [10] was > 100 µM (inactive), the GI50 [11] was > 100 µM (inactive) and the GI50 [12] was > 100 µM (inactive). For the same compound, the GI50 [13] was > 100 µM (inactive), the GI50 [14] was > 100 µM (inactive) and the GI50 [15] was > 100 µM (inactive). The GI50 [16] was > 100 µM (inactive), the GI50 [17] was > 100 µM (inactive) and the GI50 [18] was > 100 µM (inactive). The GI50 [19] was > 100 µM (inactive), the GI50 [20] was > 100 µM (inactive) and the GI50 [21] was > 100 µM (inactive). For the same compound, the GI50 [22] was > 100 µM (inactive), the GI50 [23] was > 100 µM (inactive) and the GI50 [24] was > 100 µM (inactive). The GI50 [25] was > 100 µM (inactive), the GI50 [26] was > 100 µM (inactive) and the GI50 [27] was over 100 µM. For the same compound, the GI50 [28] was > 100 µM (inactive), the GI50 [29] was > 100 µM (inactive) and the GI50 [30] was > 100 µM (inactive). The GI50 [31] was > 100 µM (inactive), the GI50 [32] was > 100 µM (inactive) and the GI50 [33] was > 100 µM (inactive). The GI50 [34] was > 100 µM (inactive), the GI50 [35] was > 100 µM (inactive) and the GI50 [36] was > 100 µM (inactive). For the same compound, the GI50 [37] was > 100 µM (inactive), the GI50 [38] was > 100 µM (inactive) and the GI50 [39] was > 100 µM (inactive). For the same compound, the GI50 [40] was > 100 µM (inactive), the GI50 [41] was > 100 µM (inactive) and the GI50 [42] was > 100 µM (inactive). For the same compound, the GI50 [43] was > 100 µM (inactive), the GI50 [44] was > 100 µM (inactive) and the GI50 [45] was > 100 µM (inactive). For the same compound, the GI50 [46] was > 100 µM (inactive), the GI50 [47] was > 100 µM (inactive) and the GI50 [48] was > 100 µM (inactive). The GI50 [49] was > 100 µM (inactive) and the GI50 [50] was > 100 µM (inactive).
`Nc1ccc(C(=O)NN2C(=O)C(Cl)C2c2ccccc2O)cc1` (centres undefined) was tested, and the GI50 [1] was > 100 µM (inactive), the GI50 [2] was > 100 µM (inactive) and the GI50 [3] was 42.3 µM (inactive). The GI50 [4] was > 100 µM (inactive), the GI50 [5] was 82.6 µM (inactive) and the GI50 [6] was 69.2 µM (inactive). For the same compound, the GI50 [7] was > 100 µM (inactive), the GI50 [8] was 54.2 µM (inactive) and the GI50 [9] was 21.9 µM (inactive). The GI50 [51] was > 100 µM (inactive), the GI50 [10] was > 100 µM (inactive) and the GI50 [11] was 6.01 µM (inactive). For the same compound, the GI50 [12] was 22.5 µM (inactive), the GI50 [13] was 44.5 µM (inactive) and the GI50 [14] was 73.6 µM (inactive). For the same compound, the GI50 [15] was 1.15 µM (inactive), the GI50 [16] was > 100 µM (inactive) and the GI50 [52] was 60.5 µM (inactive). The GI50 [17] was 85.9 µM (inactive), the GI50 [18] was > 100 µM (inactive) and the GI50 [19] was 18.8 µM (inactive). For the same compound, the GI50 [53] was 47.8 µM (inactive), the GI50 [20] was > 100 µM (inactive) and the GI50 [21] was 47.2 µM (inactive). The GI50 [22] was 39.2 µM (inactive), the GI50 [23] was 62.2 µM (inactive) and the GI50 [24] was 54.3 µM (inactive). For the same compound, the GI50 [25] was 60.1 µM (inactive), the GI50 [26] was 21.1 µM (inactive) and the GI50 [27] was 35.2 µM. The GI50 [28] was 75 µM (inactive), the GI50 [29] was 18.7 µM (inactive) and the GI50 [30] was 52.2 µM (inactive). The GI50 [31] was 65.2 µM (inactive), the GI50 [32] was 55.2 µM (inactive) and the GI50 [33] was 31.7 µM (inactive). The GI50 [34] was 93.1 µM (inactive), the GI50 [35] was 41.7 µM (inactive) and the GI50 [36] was 24 µM (inactive). For the same compound, the GI50 [37] was 37.3 µM (inactive), the GI50 [38] was 30.2 µM (inactive) and the GI50 [39] was 47.4 µM (inactive). For the same compound, the GI50 [54] was 70 µM (inactive), the GI50 [41] was > 100 µM (inactive) and the GI50 [55] was > 100 µM (inactive). The GI50 [42] was 43.2 µM (inactive), the GI50 [56] was 21.4 µM (inactive) and the GI50 [43] was 49.1 µM (inactive). The GI50 [45] was 36 µM (inactive), the GI50 [46] was 49.3 µM (inactive) and the GI50 [47] was 71.6 µM (inactive). The GI50 [48] was 70.1 µM (inactive), the GI50 [49] was 72.3 µM (inactive) and the GI50 [50] was > 100 µM (inactive).
